From patent publication US6864266B2, “4-piperidinyl alkyl amine derivatives as muscarinic receptor antagonists” (Syntex (U.S.A.) LLC, priority 2001, dated 2005)
pKi: −log10 of the molar value.

How the values were obtained:
[1] = target: T1, recombinant human muscarinic receptor m2 (Homo sapiens, UniProt P08172); assay: Radioligand binding studies, [3H]N-methyl scopolamine, scintillation proximity assay; settings: CHO cell membranes, pIC50 converted to pKi by Cheng-Prusoff
T1 construct: expressed in transfected cells; host or cells: Chinese hamster ovary (CHO) cells, membrane preparation
T1 sequence (P08172 1-466): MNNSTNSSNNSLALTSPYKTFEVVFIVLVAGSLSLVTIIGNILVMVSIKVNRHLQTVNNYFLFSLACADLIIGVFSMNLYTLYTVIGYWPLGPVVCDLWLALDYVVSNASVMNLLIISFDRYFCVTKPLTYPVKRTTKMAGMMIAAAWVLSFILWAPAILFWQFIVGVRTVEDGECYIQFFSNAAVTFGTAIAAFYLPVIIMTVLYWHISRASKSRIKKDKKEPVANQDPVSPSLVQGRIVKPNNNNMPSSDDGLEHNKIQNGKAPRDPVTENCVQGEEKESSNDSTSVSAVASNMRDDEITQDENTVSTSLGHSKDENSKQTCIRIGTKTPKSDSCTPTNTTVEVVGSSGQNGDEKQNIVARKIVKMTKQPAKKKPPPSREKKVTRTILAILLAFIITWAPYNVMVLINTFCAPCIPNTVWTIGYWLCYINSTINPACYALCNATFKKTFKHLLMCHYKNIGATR
Method: (§1) The compounds of this invention are muscarinic receptor antagonists. The muscarinic receptor affinity of test compounds can be determined by an in vitro receptor binding assay which utilizes a cell membrane preparation from the Chinese hamster ovary cells expressing the recombinant human muscarinic receptors (M1-M5), and is described in more detail in Example 18.
(§2) The inhibitory activity of compounds of this invention in vitro was determined using a modification of the method described in Hegde, S. S. et al. (1997) Br. J. Pharmacol., 120, 1409-1418.
(§3) Cell membranes from Chinese hamster ovary cells expressing the recombinant human muscarinic receptors (m1-m5) were employed. The assays were conducted with the radioligand [^3H]N-methyl scopolamine(0.4 nM, specific activity 84 Ci·mmol^−1) in a final volume of 0.25 mL Tris-Krebs buffer. Non-specific binding was defined with 1 μM atropine. Assays were performed using scintillation proximity assay technology. Competition-displacement curves were generated using 10 concentrations of test compounds and were analyzed by iterative curve fitting to a four parameter logistic equation. pIC50 values (−log of the IC50) were converted to pKi values using the Cheng-Prusoff equation.

[2] = target: T2, recombinant human muscarinic receptor m3 (Homo sapiens, UniProt P20309); assay: as above; settings: CHO cell membranes, pIC50 converted to pKi by Cheng-Prusoff
T2 construct: expressed in transfected cells; host or cells: Chinese hamster ovary (CHO) cells, membrane preparation
Method: as §1, §2, §3

T2 sequence (P20309 whole entry): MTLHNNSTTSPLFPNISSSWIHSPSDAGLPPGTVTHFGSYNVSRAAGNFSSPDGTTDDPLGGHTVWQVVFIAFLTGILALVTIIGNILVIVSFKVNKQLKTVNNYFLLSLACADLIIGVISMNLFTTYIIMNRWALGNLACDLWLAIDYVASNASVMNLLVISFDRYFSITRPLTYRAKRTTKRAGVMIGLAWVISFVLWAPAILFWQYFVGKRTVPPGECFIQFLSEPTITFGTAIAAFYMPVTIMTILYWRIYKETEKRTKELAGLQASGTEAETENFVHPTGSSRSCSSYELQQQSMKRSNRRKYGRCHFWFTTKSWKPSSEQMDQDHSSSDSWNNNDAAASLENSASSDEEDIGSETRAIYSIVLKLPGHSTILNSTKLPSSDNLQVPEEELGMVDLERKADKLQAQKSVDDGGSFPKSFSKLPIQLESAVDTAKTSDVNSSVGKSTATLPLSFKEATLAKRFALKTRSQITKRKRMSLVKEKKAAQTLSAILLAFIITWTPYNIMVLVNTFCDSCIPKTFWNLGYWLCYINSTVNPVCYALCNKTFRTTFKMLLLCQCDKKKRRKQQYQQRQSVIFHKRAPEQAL

| pKi [1] | pKi [2] | SMILES |
| --- | --- | --- |
| 8.28 | 6.73 | CCCN(CC1CCN(C(=O)N2CCOCC2)CC1)C1CCc2ccc(N)cc2C1 (stereo not drawn) [Cpd 95, (4-{[(7-amino-1,2,3,4-tetrahydro-naphthalen-2-yl)-propyl-amino]-methyl}-piperidin-1-yl)-morpholin-4-yl-methanone] |
| 6.85 | 6.22 | CCCN(CC1CCN(S(C)(=O)=O)CC1)C1CCc2ccc(-c3ccco3)cc2C1 (stereo not drawn) [Cpd 117, (7-furan-2-yl-1,2,3,4-tetrahydro-naphthalen-2-yl)-(1-methanesulfonyl-piperidin-4-ylmethyl)-propyl-amine] |
| 8.90 | 7.29 | CCCN(CC1CCN(C(=O)C2CCNCC2)CC1)C1CCc2ccc(OS(=O)(=O)c3c(C)noc3C)cc2C1 (stereo not drawn) [Cpd 114, 3,5-dimethyl-isoxazole-4-sulfonic acid 7-{[1-(piperidine-4-carbonyl)-piperidin-4-ylmethyl]-propyl-amino}-5,6,7,8-tetrahydro-naphthalen-2-yl ester] |
| 8.60 | 5.29 | CCCN(CCC1CCN(C(=O)C2CCNCC2)CC1)[C@@H]1CCc2ccc(OC)cc2C1 [Cpd 116, (4-{2-[((R)-7-methoxy-1,2,3,4-tetrahydro-naphthalen-2-yl)-propyl-amino]-ethyl}-piperidin-1-yl)-piperidin-4-yl-methanone] |
| 7.60 | 6.99 | CCCN(CC1CCN(C(=O)NC)CC1)C1CCc2ccc(OC)cc2C1 (stereo not drawn) [Cpd 25, 4-{[(7-methoxy-1,2,3,4-tetrahydro-naphthalen-2-yl)-propyl-amino]-methyl}-piperidine-1-carboxylic acid methylamide] |
| 7.79 | 6.83 | CCCN(CC1CCN(C(=O)c2ccno2)CC1)C1CCc2ccc(OS(=O)(=O)C(F)(F)F)cc2C1 (stereo not drawn) [Cpd 107, trifluoro-methanesulfonic acid 7-{[1-(isoxazole-5-carbonyl)-piperidin-4-ylmethyl]-propyl-amino}-5,6,7,8-tetrahydro-naphthalen-2-yl ester] |
| 7.32 | 5.92 | CCN(CC1CCN(C(=O)N2CCOCC2)CC1)C1CCc2ccc(NC(=O)c3ccc(S(C)(=O)=O)cc3)cc2C1 (stereo not drawn) [Cpd 2, N-(7-{ethyl-[1-(morpholine-4-carbonyl)-piperidin-4-ylmethyl]-amino}-5,6,7,8-tetrahydro-naphthalen-2-yl)-4-methanesulfonyl-benzamide] |
| 7.79 | 7.33 | CCCN(CC1CCN(S(C)(=O)=O)CC1)C1CCc2ccc(OCC)cc2C1 (stereo not drawn) [Cpd 104, (7-ethoxy-1,2,3,4-tetrahydro-naphthalen-2-yl)-(1-methanesulfonyl-piperidin-4-ylmethyl)-propyl-amine] |
| 7.98 | 6.19 | CCN(CC1CCN(C(=O)NC(C)C)CC1)C1CCc2ccc(NC(=O)c3ccc(F)cc3)cc2C1 (stereo not drawn) [Cpd 7, 4-({ethyl-[7-(4-fluoro-benzoylamino)-1,2,3,4-tetrahydro-naphthalen-2-yl]-amino}-methyl)-piperidine-1-carboxylic acid isopropylamide] |
| 7.66 | 7.17 | CCCN(CC1CCN(C(=O)N2CCN(C)CC2)CC1)C1CCc2ccc(OS(=O)(=O)c3c(C)noc3C)cc2C1 (stereo not drawn) [Cpd 115, 3,5-dimethyl-isoxazole-4-sulfonic acid 7-{[1-(4-methyl-piperazine-1-carbonyl)-piperidin-4-ylmethyl]-propyl-amino}-5,6,7,8-tetrahydro-naphthalen-2-yl ester] |
| 7.89 | 6.78 | CCCN(CC1CCN(S(C)(=O)=O)CC1)C1CCc2ccc(N)cc2C1 (stereo not drawn) [Cpd 85, N-(1-methanesulfonyl-piperidin-4-ylmethyl)-N-propyl-1,2,3,4-tetrahydro-naphthalene-2,7-diamine] |
| 7.37 | 6.48 | CCCN(CC1CCN(C(=O)c2ccco2)CC1)C1CCc2cc(OC)c(OC)cc2C1 (stereo not drawn) [Cpd 70, (4-{[(6,7-dimethoxy-1,2,3,4-tetrahydro-naphthalen-2-yl)-propyl-amino]-methyl}-piperidin-1-yl)-furan-2-yl-methanone] |
